From ChEMBL document CHEMBL6103552, “Identification of peptide-based hepatitis B virus capsid inhibitors based on the viral core protein” (Bioorg Med Chem Lett, 2025)
The source made the active and inactive calls. How the calls were made is not given here.

Target: Core antigen (Hepatitis B virus) (UniProt Q03732)
Test: Inhibition of Hepatitis B virus capsid formation at 100 uM treated during cell-free wild type HBV Cp synthesis using wheat germ lysates and HBV Cp RNA by Native capsid assay based western blot analysis
Type: subcellular

Chain of Core antigen (Hepatitis B virus) (Q03732 as listed by the source): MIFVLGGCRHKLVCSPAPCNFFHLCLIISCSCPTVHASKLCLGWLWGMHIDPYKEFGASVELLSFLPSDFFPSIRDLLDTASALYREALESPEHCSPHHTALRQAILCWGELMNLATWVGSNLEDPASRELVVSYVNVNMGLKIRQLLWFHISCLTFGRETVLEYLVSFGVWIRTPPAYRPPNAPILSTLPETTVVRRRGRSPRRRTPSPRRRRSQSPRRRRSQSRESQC

| SMILES | inhibition |
| --- | --- |
| CC(C)C[C@H](NC(=O)[C@H](CC(C)C)NC(=O)[C@H](CCC(=O)O)NC(=O)[C@@H](NC(=O)[C@H](CO)NC(=O)[C@H](C)N)C(C)C)C(=O)N[C@@H](CO)C(=O)N[C@@H](Cc1ccccc1)C(=O)N[C@@H](CC(C)C)C(=O)N1CCC[C@H]1C(=O)N[C@@H](CO)C(=O)N[C@@H](CC(=O)O)C(=O)N[C@@H](Cc1ccccc1)C(=O)N[C@@H](Cc1ccccc1)C(=O)N1CCC[C@H]1C(N)=O | inactive |
| CC(C)C[C@H](NC(=O)[C@H](CC(C)C)NC(=O)[C@H](CCC(=O)O)NC(=O)[C@@H](NC(=O)[C@H](CO)NC(=O)[C@H](C)NC(=O)CNC(=O)[C@H](Cc1ccccc1)NC(=O)[C@H](CCC(=O)O)NC(=O)[C@H](CCCCN)NC(=O)[C@@H](N)Cc1ccc(O)cc1)C(C)C)C(=O)N[C@@H](CO)C(=O)N[C@@H](Cc1ccccc1)C(=O)N[C@@H](CC(C)C)C(=O)N1CCC[C@H]1C(N)=O | inactive |
| CC(C)C[C@H](NC(=O)[C@H](CC(N)=O)NC(=O)[C@H](CO)NC(=O)CNC(=O)[C@@H](NC(=O)[C@@H](N)Cc1c[nH]c2ccccc12)C(C)C)C(=O)N[C@@H](CCC(=O)O)C(=O)N[C@@H](CC(=O)O)C(=O)N1CCC[C@H]1C(=O)N[C@@H](C)C(=O)N[C@@H](CO)C(=O)N[C@@H](CCCNC(=N)N)C(=O)N[C@@H](CCC(=O)O)C(=O)N[C@@H](CC(C)C)C(=O)N[C@H](C(N)=O)C(C)C | inactive |
| CC(C)C[C@H](NC(=O)[C@H](CCC(=O)O)NC(=O)[C@H](CCCNC(=N)N)NC(=O)[C@H](CO)NC(=O)[C@H](C)NC(=O)[C@@H]1CCCN1C(=O)[C@H](CC(=O)O)NC(=O)[C@H](CCC(=O)O)NC(=O)[C@@H](N)CC(C)C)C(=O)N[C@H](C(=O)N[C@H](C(=O)N[C@@H](CO)C(=O)N[C@@H](Cc1ccc(O)cc1)C(=O)N[C@H](C(=O)N[C@@H](CC(N)=O)C(N)=O)C(C)C)C(C)C)C(C)C | inactive |
| CC[C@H](C)[C@H](NC(=O)[C@@H](N)CO)C(=O)N[C@@H](CCCNC(=N)N)C(=O)N[C@@H](CC(=O)O)C(=O)N[C@@H](CC(C)C)C(=O)N[C@@H](CC(C)C)C(=O)N[C@@H](CC(=O)O)C(=O)N[C@H](C(=O)N[C@@H](C)C(=O)N[C@@H](CO)C(=O)N[C@@H](C)C(=O)N[C@@H](CC(C)C)C(=O)N[C@@H](Cc1ccc(O)cc1)C(=O)N[C@@H](CCCNC(=N)N)C(=O)N[C@@H](CCC(=O)O)C(N)=O)[C@@H](C)O | inactive |
| CC[C@H](C)[C@H](NC(=O)[C@@H]1CCCN1C(=O)[C@H](C)NC(=O)[C@@H](N)CC(N)=O)C(=O)N[C@@H](CC(C)C)C(=O)N[C@@H](CO)C(=O)N[C@H](C(=O)N[C@@H](CC(C)C)C(=O)N1CCC[C@H]1C(=O)N[C@@H](CCC(=O)O)C(=O)N[C@H](C(=O)N[C@H](C(=O)N[C@H](C(=O)N[C@H](C(=O)N[C@@H](CCCNC(=N)N)C(N)=O)C(C)C)C(C)C)[C@@H](C)O)[C@@H](C)O)[C@@H](C)O | inactive |
| CC[C@H](C)[C@H](NC(=O)[C@H](C)NC(=O)[C@H](CCC(N)=O)NC(=O)[C@@H]1CCCN1)C(=O)N[C@@H](CC(C)C)C(=O)N[C@@H](CS)C(=O)N[C@@H](Cc1c[nH]c2ccccc12)C(=O)NCC(=O)N[C@@H](CCC(=O)O)C(=O)N[C@@H](CC(C)C)C(=O)N[C@@H](CCSC)C(=O)N[C@@H](CC(N)=O)C(=O)N[C@@H](CC(C)C)C(=O)N[C@@H](C)C(=O)N[C@H](C(N)=O)[C@@H](C)O | inactive |
| CC[C@H](C)[C@H](NC(=O)[C@H](CC(=O)O)NC(=O)[C@@H](N)CCSC)C(=O)N[C@@H](CC(=O)O)C(=O)N1CCC[C@H]1C(=O)N[C@@H](Cc1ccc(O)cc1)C(=O)N[C@@H](CCCCN)C(=O)N[C@@H](CCC(=O)O)C(=O)N[C@@H](Cc1ccccc1)C(=O)NCC(=O)N[C@@H](C)C(=O)N[C@@H](CO)C(=O)N[C@H](C(=O)N[C@@H](CCC(=O)O)C(=O)N[C@@H](CC(C)C)C(N)=O)C(C)C | inactive |
| CC[C@H](C)[C@H](NC(=O)[C@H](CO)NC(=O)[C@@H]1CCCN1C(=O)[C@H](Cc1ccccc1)NC(=O)[C@H](Cc1ccccc1)NC(=O)[C@H](CC(=O)O)NC(=O)[C@@H](N)CO)C(=O)N[C@@H](CCCNC(=N)N)C(=O)N[C@@H](CC(=O)O)C(=O)N[C@@H](CC(C)C)C(=O)N[C@@H](CC(C)C)C(=O)N[C@@H](CC(=O)O)C(=O)N[C@H](C(=O)N[C@@H](C)C(=O)N[C@@H](CO)C(N)=O)[C@@H](C)O | inactive |
| CC[C@H](C)[C@H](NC(=O)[C@H](CO)NC(=O)[C@@H]1CCCN1C(=O)[C@H](Cc1ccccc1)NC(=O)[C@H](Cc1ccccc1)NC(=O)[C@H](CC(=O)O)NC(=O)[C@H](CO)NC(=O)[C@@H]1CCCN1C(=O)[C@H](CC(C)C)NC(=O)[C@H](Cc1ccccc1)NC(=O)[C@H](CO)NC(=O)[C@@H](N)CC(C)C)C(=O)N[C@@H](CCCNC(=N)N)C(=O)N[C@@H](CC(=O)O)C(=O)N[C@@H](CC(C)C)C(N)=O | inactive |
| CC[C@H](C)[C@H](NC(=O)[C@H](Cc1c[nH]c2ccccc12)NC(=O)[C@@H](NC(=O)CNC(=O)[C@H](Cc1ccccc1)NC(=O)[C@@H](N)CO)C(C)C)C(=O)N[C@@H](CCCNC(=N)N)C(=O)N[C@H](C(=O)N1CCC[C@H]1C(=O)N1CCC[C@H]1C(=O)N[C@@H](C)C(=O)N[C@@H](Cc1ccc(O)cc1)C(=O)N[C@@H](CCCNC(=N)N)C(=O)N1CCC[C@H]1C(=O)N1CCC[C@H]1C(N)=O)[C@@H](C)O | inactive |
| CC[C@H](C)[C@H](NC(=O)[C@H](Cc1c[nH]cn1)NC(=O)[C@H](Cc1ccccc1)NC(=O)[C@H](Cc1c[nH]c2ccccc12)NC(=O)[C@H](CC(C)C)NC(=O)[C@H](CC(C)C)NC(=O)[C@H](CCC(N)=O)NC(=O)[C@H](CCCNC(=N)N)NC(=O)[C@H](Cc1ccccc1)NC(=O)[C@H](CCCCN)NC(=O)[C@H](CC(C)C)NC(=O)CNC(=O)[C@H](CCSC)NC(=O)[C@H](CC(N)=O)NC(=O)[C@@H](N)C(C)C)C(N)=O | inactive |
| CSCC[C@H](N)C(=O)N[C@@H](CC(N)=O)C(=O)N[C@@H](CC(C)C)C(=O)N[C@@H](C)C(=O)N[C@H](C(=O)N[C@@H](Cc1c[nH]c2ccccc12)C(=O)N[C@H](C(=O)NCC(=O)N[C@@H](CO)C(=O)N[C@@H](CC(N)=O)C(=O)N[C@@H](CC(C)C)C(=O)N[C@@H](CCC(=O)O)C(=O)N[C@@H](CC(=O)O)C(=O)N1CCC[C@H]1C(=O)N[C@@H](C)C(N)=O)C(C)C)[C@@H](C)O | inactive |
| CSCC[C@H](NC(=O)[C@H](CC(C)C)NC(=O)[C@H](CCC(=O)O)NC(=O)CNC(=O)[C@H](Cc1c[nH]c2ccccc12)NC(=O)[C@@H](N)CS)C(=O)N[C@@H](CC(N)=O)C(=O)N[C@@H](CC(C)C)C(=O)N[C@@H](C)C(=O)N[C@H](C(=O)N[C@@H](Cc1c[nH]c2ccccc12)C(=O)N[C@H](C(=O)NCC(=O)N[C@@H](CO)C(=O)N[C@@H](CC(N)=O)C(N)=O)C(C)C)[C@@H](C)O | inactive |
| CSCC[C@H](NC(=O)[C@H](CC(N)=O)NC(=O)[C@@H](NC(=O)[C@H](CC(N)=O)NC(=O)[C@@H](NC(=O)[C@H](Cc1ccc(O)cc1)NC(=O)[C@H](CO)NC(=O)[C@@H](NC(=O)[C@@H](NC(=O)[C@H](CC(C)C)NC(=O)[C@H](CCC(=O)O)NC(=O)[C@H](CCCNC(=N)N)NC(=O)[C@@H](N)CO)C(C)C)C(C)C)C(C)C)C(C)C)C(=O)NCC(=O)N[C@@H](CC(C)C)C(N)=O | inactive |
